In PubChem BioAssay (NCI):
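All cell lines were grown in 96-well plates and treated with compound for 48 hours. GI50: concentration for 50% inhibition of growth. TGI: concentration producing complete growth inhibition.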

Key:
Assay in all cases: inhibition of tumour cell growth, NCI panel, 48 h
NCI-H460 lung = system: NCI-H460 lung
UACC-62 melanoma = system: UACC-62 melanoma
K-562 leukemia = system: K-562 leukemia
CAKI-1 renal = system: CAKI-1 renal
RXF 393 renal = system: RXF 393 renal
M14 melanoma = system: M14 melanoma
MDA-MB-231 breast = system: MDA-MB-231 breast
SF-539 CNS = system: SF-539 CNS
SK-MEL-2 melanoma = system: SK-MEL-2 melanoma
ACHN renal = system: ACHN renal
HCC-2998 colon = system: HCC-2998 colon
MALME-3M melanoma = system: MALME-3M melanoma
HOP-92 NSCLC = system: HOP-92 NSCLC
T-47D breast = system: T-47D breast
CCRF-CEM leukemia = system: CCRF-CEM leukemia
SN12C renal = system: SN12C renal
786-0 renal = system: 786-0 renal
HT29 colon = system: HT29 colon
OVCAR-8 ovarian = system: OVCAR-8 ovarian
RPMI-8226 leukemia = system: RPMI-8226 leukemia
OVCAR-4 ovarian = system: OVCAR-4 ovarian
KM12 colon = system: KM12 colon
SR leukemia = system: SR leukemia
EKVX NSCLC = system: EKVX NSCLC
COLO 205 colon = system: COLO 205 colon
SNB-19 CNS = system: SNB-19 CNS
SNB-75 CNS = system: SNB-75 CNS
NCI/ADR-RES ovarian = system: NCI/ADR-RES ovarian
UO-31 renal = system: UO-31 renal
IGROV1 ovarian = system: IGROV1 ovarian
SK-MEL-5 melanoma = system: SK-MEL-5 melanoma
MCF7 breast = system: MCF7 breast
TK-10 renal = system: TK-10 renal
DU-145 prostate = system: DU-145 prostate
HCT-15 colon = system: HCT-15 colon
UACC-257 melanoma = system: UACC-257 melanoma
NCI-H522 lung = system: NCI-H522 lung
NCI-H23 lung = system: NCI-H23 lung
HS 578T breast = system: HS 578T breast
HOP-62 NSCLC = system: HOP-62 NSCLC
SF-268 CNS = system: SF-268 CNS
SW-620 colon = system: SW-620 colon
HL-60(TB) leukemia = system: HL-60(TB) leukemia
A549 NSCLC = system: A549 NSCLC
SK-MEL-28 melanoma = system: SK-MEL-28 melanoma
SK-OV-3 ovarian = system: SK-OV-3 ovarian
LOX IMVI melanoma = system: LOX IMVI melanoma
HCT-116 colon = system: HCT-116 colon
A498 renal = system: A498 renal
NCI-H226 lung = system: NCI-H226 lung
PC-3 prostate = system: PC-3 prostate
SF-295 CNS = system: SF-295 CNS
U251 CNS = system: U251 CNS
BT-549 breast = system: BT-549 breast
MOLT-4 leukemia = system: MOLT-4 leukemia
OVCAR-5 ovarian = system: OVCAR-5 ovarian
MDA-MB-435 = system: MDA-MB-435

O=C(O)c1ccc(-n2c(=O)n(-c3cccc(C(F)(F)F)c3)c(=O)c3cc(-c4ccc(F)cc4F)ccc32)cc1
GI50 (NCI-H460 lung): 1.58 µM
TGI (NCI-H460 lung): 8.21 µM
GI50 (UACC-62 melanoma): 0.582 µM
TGI (UACC-62 melanoma): 2.51 µM
GI50 (K-562 leukemia): 0.335 µM
TGI (K-562 leukemia): 7.74 µM
GI50 (CAKI-1 renal): 2.11 µM
TGI (CAKI-1 renal): 6.96 µM
GI50 (RXF 393 renal): 1.48 µM
TGI (RXF 393 renal): 3.47 µM
GI50 (M14 melanoma): 1.58 µM
TGI (M14 melanoma): 3.72 µM
GI50 (MDA-MB-231 breast): 2.18 µM
TGI (MDA-MB-231 breast): 6.71 µM
GI50 (SF-539 CNS): 2.2 µM
TGI (SF-539 CNS): 8.17 µM
GI50 (SK-MEL-2 melanoma): 1.04 µM
TGI (SK-MEL-2 melanoma): 2.91 µM
GI50 (ACHN renal): 2.67 µM
TGI (ACHN renal): 10.6 µM
GI50 (HCC-2998 colon): 3.03 µM
TGI (HCC-2998 colon): 9.71 µM
GI50 (MALME-3M melanoma): 1.78 µM
TGI (MALME-3M melanoma): 5.42 µM
GI50 (HOP-92 NSCLC): 0.525 µM
TGI (HOP-92 NSCLC): 3.54 µM
GI50 (T-47D breast): 1.79 µM
TGI (T-47D breast): 6.21 µM
GI50 (CCRF-CEM leukemia): 3.32 µM
TGI (CCRF-CEM leukemia): 20.9 µM
GI50 (SN12C renal): 1.91 µM
TGI (SN12C renal): 8.29 µM
GI50 (786-0 renal): 1.83 µM
TGI (786-0 renal): 3.63 µM
GI50 (HT29 colon): 3.58 µM
TGI (HT29 colon): 13.7 µM
GI50 (OVCAR-8 ovarian): 2.03 µM
TGI (OVCAR-8 ovarian): 8.43 µM
GI50 (RPMI-8226 leukemia): 1.7 µM
TGI (RPMI-8226 leukemia): 7.05 µM
GI50 (OVCAR-4 ovarian): 2.82 µM
TGI (OVCAR-4 ovarian): 35 µM
GI50 (KM12 colon): 2.59 µM
TGI (KM12 colon): 7.49 µM
GI50 (SR leukemia): 0.555 µM
TGI (SR leukemia): 4.07 µM
GI50 (EKVX NSCLC): 2.53 µM
TGI (EKVX NSCLC): 8.53 µM
GI50 (COLO 205 colon): 2.85 µM
TGI (COLO 205 colon): 7.41 µM
GI50 (SNB-19 CNS): 2.03 µM
TGI (SNB-19 CNS): 31.1 µM
GI50 (SNB-75 CNS): 1.93 µM
TGI (SNB-75 CNS): 7.02 µM
GI50 (NCI/ADR-RES ovarian): 2.63 µM
TGI (NCI/ADR-RES ovarian): 15.2 µM
GI50 (UO-31 renal): 2.54 µM
TGI (UO-31 renal): 9.57 µM
GI50 (IGROV1 ovarian): 2.91 µM
TGI (IGROV1 ovarian): 20.5 µM
GI50 (SK-MEL-5 melanoma): 0.49 µM
TGI (SK-MEL-5 melanoma): 1.88 µM
GI50 (MCF7 breast): 2 µM
TGI (MCF7 breast): 9.29 µM
GI50 (TK-10 renal): 3.86 µM
TGI (TK-10 renal): 8.4 µM
GI50 (DU-145 prostate): 3.37 µM
TGI (DU-145 prostate): 14.2 µM
GI50 (HCT-15 colon): 1.04 µM
TGI (HCT-15 colon): 3 µM
GI50 (UACC-257 melanoma): 1.6 µM
TGI (UACC-257 melanoma): 4.96 µM
GI50 (NCI-H522 lung): 0.576 µM
TGI (NCI-H522 lung): 3.98 µM
GI50 (NCI-H23 lung): 1.56 µM
TGI (NCI-H23 lung): 5.88 µM
GI50 (HS 578T breast): 2.12 µM
TGI (HS 578T breast): 6.98 µM
GI50 (HOP-62 NSCLC): 2.04 µM
TGI (HOP-62 NSCLC): 4.66 µM
GI50 (SF-268 CNS): 2.37 µM
TGI (SF-268 CNS): 15 µM
GI50 (SW-620 colon): 2.03 µM
TGI (SW-620 colon): 4.96 µM
GI50 (HL-60(TB) leukemia): 0.323 µM
TGI (HL-60(TB) leukemia): 11.1 µM
GI50 (A549 NSCLC): 2.96 µM
TGI (A549 NSCLC): 13.5 µM
GI50 (SK-MEL-28 melanoma): 1.85 µM
TGI (SK-MEL-28 melanoma): 6.79 µM
GI50 (SK-OV-3 ovarian): 1.45 µM
TGI (SK-OV-3 ovarian): 4.12 µM
GI50 (LOX IMVI melanoma): 1.73 µM
TGI (LOX IMVI melanoma): 3.53 µM
GI50 (HCT-116 colon): 1.1 µM
TGI (HCT-116 colon): 2.39 µM
GI50 (A498 renal): 0.524 µM
TGI (A498 renal): 1.87 µM
GI50 (NCI-H226 lung): 1.72 µM
TGI (NCI-H226 lung): 4.8 µM
GI50 (PC-3 prostate): 2.86 µM
TGI (PC-3 prostate): 8.76 µM
GI50 (SF-295 CNS): 1.82 µM
TGI (SF-295 CNS): 3.82 µM
GI50 (U251 CNS): 2.06 µM
TGI (U251 CNS): 10.7 µM
GI50 (BT-549 breast): 1.54 µM
TGI (BT-549 breast): 3.11 µM
GI50 (MOLT-4 leukemia): 1.44 µM
TGI (MOLT-4 leukemia): 6.16 µM
GI50 (OVCAR-5 ovarian): 3.61 µM
TGI (OVCAR-5 ovarian): 28.5 µM
GI50 (MDA-MB-435): 2.31 µM
TGI (MDA-MB-435): 7.62 µM
